One block for each compound: values may come before it.
Assays:
[1] = Study 206281: plasma PK of DRV, RTV and ETR with or without FTR
Experimental: (§1) Participants were randomly assigned to one of three cohorts per a computer-generated randomization scheme. • Cohort 1: Participants received FTR at 600 mg twice daily (BID) on days 1 to 4. […] After a 2-day washout (days 5 and 6), participants received ETR at 200 mg BID for 10 days (days 7 to 16) followed by FTR at 600 mg BID with ETR at 200 mg BID for 10 days (days 17 to 26). • Cohort 3: Participants received FTR at 600 mg BID on days 1 to 4.
(§2) Eligible participants were admitted to the clinical facility on day −1 of each study. […] Physical examinations, measurements of vital signs, 12-lead ECGs, and clinical laboratory evaluations were performed, and participants were closely monitored for AEs and SAEs, throughout both studies.
(§3) (i) Bioanalytical methods and PK analysis. […] The lower limit of quantification and the upper limit of quantification for the analysis of TMR in both studies were 5 ng/mL and 5,000 ng/mL, respectively.
(§4) (ii) PK analysis. For both studies, individual participant PK parameter values were derived by noncompartmental methods with a validated PK analysis program using actual times. […] Cmax, Tmax, C12, and C24 were recorded directly from experimental observations and AUCtau was calculated by mixed log-linear trapezoidal summations.
(§5) SAS software version 9.2 (SAS Institute, Inc., Cary, North Carolina) was used for all statistical analyses, tabulations, and graphical presentations. For all treatment comparisons, a linear mixed-effect model was fitted to the log-transformed data with treatment as fixed effect and measurements within each participant as repeated measures, for use in the estimation of effects and the construction of CIs. Point estimates and 90% CIs for differences on the log scale were exponentiated to obtain estimates for GMRs and respective 90% CIs on the original scale. […] FTR administered alone was the reference treatment for both studies.

[2] = Study 206281: safety, adverse events; format: in vivo, human; conditions: A fostemsavir 600 mg BID, B DRV/r 600/100 mg BID, C ETR 200 mg BID
Experimental: as §1, §2

[3] = Study 206285: safety, adverse events
Experimental: Participants were sequentially enrolled to two cohorts. • Cohort 1: Participants received FTR at 600 mg BID on days 1 to 4. […] Participants then received FTR at 600 mg BID plus COBI at 150 mg QD on days 5 to 14 (Fig. 4B).

HIV-1 = system: HIV-1; parameters: method as in PMID 32212519; conditions: through 8 days of FTR functional monotherapy with failing regimen; HTE HIV-1-infected participants, randomized cohort; P < 0.0001; cited from earlier work
[4] = system: breast cancer resistance protein (BCRP); conditions: not told; cited from earlier work
[5] = Study 206285: plasma PK of temsavir after FTR alone or with DRV/c or COBI; format: in vivo, human
Experimental: as §2, §3, §4, §5

P-glycoprotein (P-gp) = system: P-glycoprotein (P-gp); parameters: method as in earlier work; conditions: preclinical studies; cited from earlier work
[6] = QT prolongation at supratherapeutic FTR dose; format: in vivo, human; conditions: supratherapeutic FTR 2,400 mg BID
[7] = Study 206281: plasma PK of temsavir after FTR alone or with DRV/r, ETR, or DRV/r plus ETR; format: in vivo, human
Experimental: as §1, §2, §3, §4, §5

[8] = FTR with DRV/r + ETR vs DRV/r plus ETR, study 206281 cohort 3
[9] = DRV/r plus ETR with FTR vs DRV/r plus ETR, study 206281 cohort 3
[10] = ETR with FTR vs ETR alone, study 206281 cohort 2
[11] = FTR plus DRV/r plus ETR vs DRV/r plus ETR, study 206281 cohort 3
[12] = FTR with DRV/r vs DRV/r, study 206281 cohort 1
[13] = FTR coadministered with COBI vs FTR alone, study 206285 cohort 2
[14] = FTR coadministered with DRV and COBI (DRV/c) vs FTR alone, study 206285 cohort 1
[15] = FTR coadministered with DRV/r and ETR vs FTR alone, study 206281 cohort 3
[16] = FTR coadministered with DRV/r vs FTR alone, study 206281 cohort 1
[17] = FTR coadministered with ETR vs FTR alone, study 206281 cohort 2
[18] = FTR coadministered with ETR vs FTR alone, study 206281 cohort 2, listed as TMR

decrease in DRV AUCtau [1, 8]: 6%
decrease in DRV C12 [1, 8]: 12%
decrease in DRV Cmax [1, 8]: 5%
SMILES: CC(C)CN(C[C@@H](O)[C@H](Cc1ccccc1)NC(=O)O[C@H]1CO[C@H]2OCC[C@H]21)S(=O)(=O)c1ccc(N)cc1 [DRV]

increase in ETR AUCtau [1, 9]: 28%
increase in ETR C12 [1, 9]: 28%
increase in ETR Cmax [1, 9]: 18%
increase in ETR AUCtau [1, 10]: 11%
increase in ETR C12 [1, 10]: 14%
increase in ETR Cmax [1, 10]: 11%
AUC ([1]; human, plasma, oral, 200 mg): 7820 ng·h/mL
Cmax ([1]; human, plasma, oral, 200 mg): 846 ng/mL
concentration at 12 h ([1]; human, plasma, oral, 200 mg): 457 ng/mL
SMILES: Cc1cc(C#N)cc(C)c1Oc1nc(Nc2ccc(C#N)cc2)nc(N)c1Br [ETR, reference compound]
Abdominal distension [2]: 0 No. of patients (%)
Aphthous stomatitis [2]: 0 No. of patients (%)
Back pain [2]: 0 No. of patients (%)
Diarrhea [2]: 0 No. of patients (%)
Dizziness [2]: 0 No. of patients (%)
Drug eruption [2]: 2 (14.3) No. of patients (%)
Dry mouth [2]: 0 No. of patients (%)
Fatigue [2]: 0 No. of patients (%)
Headache [2]: 0 No. of patients (%)
Muscle spasms [2]: 0 No. of patients (%)
Nausea [2]: 0 No. of patients (%)
Pruritus [2]: 0 No. of patients (%)
Pruritus generalized [2]: 1 (7.1) No. of patients (%)
Somnolence [2]: 0 No. of patients (%)
Subjects with any AE [2]: 4 (28.6) No. of patients (%)

SMILES: COc1cnc(-n2cnc(C)n2)c2c1c(C(=O)C(=O)N1CCN(C(=O)c3ccccc3)CC1)cn2COP(=O)(O)O [Fostemsavir]
Back pain ([3]; study 206285 cohort 1): 1 (6.3) No. of patients (%)
Constipation ([3]; study 206285 cohort 1): 0 No. of patients (%)
Cough ([3]; study 206285 cohort 1): 0 No. of patients (%)
Headache ([3]; study 206285 cohort 1): 3 (18.8) No. of patients (%)
Myalgia ([3]; study 206285 cohort 1): 0 No. of patients (%)
Nausea ([3]; study 206285 cohort 1): 1 (6.3) No. of patients (%)
Neutrophil count decreased ([3]; study 206285 cohort 1): 0 No. of patients (%)
Oropharyngeal pain ([3]; study 206285 cohort 1): 2 (12.5) No. of patients (%)
Pain ([3]; study 206285 cohort 1): 0 No. of patients (%)
Participants with AE ([3]; study 206285 cohort 1): 6 (37.5) No. of patients (%)
Vomiting ([3]; study 206285 cohort 1): 1 (6.3) No. of patients (%)
WBC decreased ([3]; study 206285 cohort 1): 0 No. of patients (%)
Back pain ([3]; study 206285 cohort 2): 1 (6.3) No. of patients (%)
Constipation ([3]; study 206285 cohort 2): 0 No. of patients (%)
Cough ([3]; study 206285 cohort 2): 0 No. of patients (%)
Headache ([3]; study 206285 cohort 2): 1 (6.3) No. of patients (%)
Myalgia ([3]; study 206285 cohort 2): 0 No. of patients (%)
Nausea ([3]; study 206285 cohort 2): 0 No. of patients (%)
Neutrophil count decreased ([3]; study 206285 cohort 2): 0 No. of patients (%)
Oropharyngeal pain ([3]; study 206285 cohort 2): 0 No. of patients (%)
Pain ([3]; study 206285 cohort 2): 0 No. of patients (%)
Participants with AE ([3]; study 206285 cohort 2): 3 (18.8) No. of patients (%)
Vomiting ([3]; study 206285 cohort 2): 0 No. of patients (%)
WBC decreased ([3]; study 206285 cohort 2): 0 No. of patients (%)
adjusted mean decline in HIV-1 RNA (HIV-1): 0.8 log10 copies/mL
Abdominal distension [2]: 0 No. of patients (%)
Aphthous stomatitis [2]: 0 No. of patients (%)
Back pain [2]: 0 No. of patients (%)
Diarrhea [2]: 0 No. of patients (%)
Dizziness [2]: 0 No. of patients (%)
Drug eruption [2]: 0 No. of patients (%)
Dry mouth [2]: 1 (2.2) No. of patients (%)
Fatigue [2]: 0 No. of patients (%)
Headache [2]: 1 (2.2) No. of patients (%)
Muscle spasms [2]: 0 No. of patients (%)
Nausea [2]: 1 (2.2) No. of patients (%)
Pruritus [2]: 1 (2.2) No. of patients (%)
Pruritus generalized [2]: 0 No. of patients (%)
Somnolence [2]: 0 No. of patients (%)
Subjects with any AE [2]: 6 (13.0) No. of patients (%)

increase in RTV AUCtau [1, 11]: 9%
increase in RTV C12 [1, 11]: 7%
increase in RTV Cmax [1, 11]: 14%
change in RTV Cmax [1, 12]: no meaningful change
increase in RTV AUCtau [1, 12]: 15%
increase in RTV C12 [1, 12]: 19%
SMILES: CC(C)c1nc(CN(C)C(=O)N[C@H](C(=O)N[C@@H](Cc2ccccc2)C[C@H](O)[C@H](Cc2ccccc2)NC(=O)OCc2cncs2)C(C)C)cs1 [RTV]

increase in TMR AUCtau [5, 13]: 93%
increase in TMR C12 (Ctau in abstract) [5, 13]: 136%
increase in TMR Cmax [5, 13]: 71%
increase in TMR AUCtau [5, 14]: 97%
increase in TMR C12 (Ctau in abstract) [5, 14]: 124%
increase in TMR Cmax [5, 14]: 79%
increase in TMR AUCtau [7, 15]: 34%
increase in TMR C12 (Ctau in abstract) [7, 15]: 33%
increase in TMR Cmax [7, 15]: 53%
increase in TMR AUCtau [7, 16]: 63%
increase in TMR C12 (Ctau in abstract) [7, 16]: 88%
increase in TMR Cmax [7, 16]: 52%
decrease in TMR exposures ([7]; FTR coadministered with ETR): approximately 50%
decrease in TMR AUCtau [7, 17]: 50%
decrease in TMR C12 (Ctau in abstract) [7, 17]: ~50%
decrease in TMR Cmax [7, 17]: ~50%
decrease in TMR C12 (Ctau in abstract) [7, 18]: 52%
decrease in TMR Cmax [7, 18]: 48%
SMILES: COc1cnc(-n2cnc(C)n2)c2[nH]cc(C(=O)C(=O)N3CCN(C(=O)c4ccccc4)CC3)c12 [Temsavir]
BCRP substrate [4]: substrate
P-glycoprotein (P-gp) substrate (P-glycoprotein (P-gp)): substrate
fold by which exposures with TMR Cmax-driven QT prolongation exceed geometric mean TMR exposures of the current studies [6]: > 2 fold

Source: article PMC9017385, “Pharmacokinetics of Temsavir, the Active Moiety of the HIV-1 Attachment Inhibitor Prodrug, Fostemsavir, Coadministered with Cobicistat, Etravirine, Darunavir/Cobicistat, or Darunavir/Ritonavir with or without Etravirine in Healthy Participants” (Antimicrobial Agents and Chemotherapy, 2022)
